# Assay results published in patent publication US7364842B2, “Methods of identifying modulators of human retrovirus replication” (IRM, LLC, priority 2003, dated 2008).
# Key:
# [1] = test system: HIV-1 LTR-driven β-gal reporter in Magi cells; assay: Magi indicator cell β-galactosidase assay (HIV LTR-mediated gene expression); type: cell-based; details: Magi cells transiently transfected with siRNA; versus Scramble siRNA control
# Source text: (§1) The ability of Pbx 1 to mediate transcription of genes of retroviruses that infect human cells was investigated using Magi indicator cells (e.g., Kimpton and Emerman, J. Virol. 66: 2232-2239, 1992). The MAGI (Multinuclear Activation of a Galactosidase Indicator) cell line was derived from parental HeLa cells by introducing genes for CD4 and an HIV-1 LTR-driven β-gal reporter with an amphotropic retrovirus vector. This cell line exploits the ability of HIV-1 tat to transactivate the expression of a β-galactosidase reporter gene driven by the HIV-LTR. […] The β-galactosidase activity was then assessed in the cultures. […] Western blot analysis of Pbx1 siRNA-transfected Magi cells confirmed that levels of Pbx1 protein were reduced in comparison to control cells transfected with firefly luciferase siRNA, which served as a negative control (FIG. 2). […] The γ-tubulin was used as the loading control.
# HIV-1 = details: siRNA-transfected Magi cells; versus Scramble siRNA control
# Protocol: Magi cells were transiently transfected with an siRNA targeting Pbx1 or Pin1. A Scramble siRNA was used as a negative control. Reverse transcriptase activity was then assessed.
# Magi indicator cells were also used to determine the effect of HMG I proteins on the transcription of retroviral genes. Magi cells were transiently transfected with an siRNA targeting HMG I-C or HMG I/Y. A Scramble siRNA was used as a negative control. […] For the western blot analysis, cells were transiently transfected with the siRNAs targeting HMGI/Y (FIG. 9), HMG I-C (FIG. 10) or firefly luciferase (control siRNA). Magi cells were lysed 48-60 hours after transfection and analyzed by western blot using antibodies against HMGI/Y, HMG I-C or γ-tubulin proteins. The γ-tubulin levels were used as the loading controls.
# recombinant HIV = assay: Recombinant HIV assay, luciferase reporter in 293T cells; type: cell-based, HIV-1; details: 293T cells transfected with siRNA, infected with recombinant HIV after 24 hours, measured after 48 hrs; versus Scramble siRNA
# Protocol: A recombinant HIV assay was used to assess the role of HMG I proteins in HIV replication. Pseudotyped recombinant HIV particles were generated by transient transfection of 293T cells using a three-plasmid expression system (FIGS. 5a and 5b).
# A Scramble siRNA was used as a negative control After 24 hours, the transfected cells were infected with recombinant HIV. After 48 hrs, luciferase activity was measured.
# HMG I-C protein = assay: Western blot of HMG I-C protein in siRNA-treated Magi cells; type: cell-based; details: Magi cells lysed 48-60 hours after transfection; versus luciferase siRNA control
# Pbx1 protein = assay: Western blot of Pbx1 protein in siRNA-transfected Magi cells; type: cell-based; details: Magi cells lysed 48-60 hours after transfection; versus firefly luciferase siRNA control
# Source text: as §1
# [2] = test system: human immunodeficiency virus (HIV); details: Chao et al., J. Biol. Chem. 2000; cited from earlier work
# [3] = test system: Moloney murine leukemia virus (MLV); details: background statement; cited from earlier work
# HMG I/Y protein = assay: Western blot of HMG I/Y protein in siRNA-treated Magi cells; type: cell-based; details: Magi cells lysed 48-60 hours after transfection; versus luciferase siRNA control
Molecule,β-gal activity [1],activity of HIV reverse transcriptase (HIV-1),MLV transcription events [3],other results
AAGCAGCUCAAAAGAAAGCAG (chemistry not given here) [HMG I-C],inhibited,reduced,,luciferase reporter activity (recombinant HIV): reduced; levels of HMG I-C protein (HMG I-C protein): reduced
AAGCCUGCCUUGUUUAAUGUG (chemistry not given here) [Pbx1 siRNA],reduced,greatly reduced,,levels of Pbx1 protein (Pbx1 protein): reduced
CN1CC[C@H](c2c(O)cc(O)c3c(=O)cc(-c4ccccc4Cl)oc23)[C@H](O)C1 [flavopiridol],,,block,anti-HIV activity [2]: very potent
methoxy-roscovitine,,,block,
CC(C)[C@H](CO)Nc1nc(Nc2cccc(Cl)c2)c2ncn(C(C)C)c2n1 [purvalanol A],,,block,
AAGUGCCAACACCUAAGAGAC (chemistry not given here) [HMG I/Y],inhibited,reduced,,levels of HMG I/Y protein (HMG I/Y protein): reduced
